Holding throughout (test): Antibacterial activity (MIC), agar dilution
What all share (assay type): cell-based

Assay [1] relates to Ps. aeruginosa GN3379*. As to conditions: Pseudomonas aeruginosa, 20 h; Ps. aeruginosa GN3379, penicillinase-producing; 10^6 cells per ml; read-out: MIC. An excerpt:
(§1) The amount of bacteria inoculated was 10^4 cells per plate (10^6 cells per ml).
(§2) * Penicillinase-producing bacteria

Assay [2] relates to Kl. pneumoniae Y-4*. To be noted: Klebsiella pneumoniae, 20 h, Kl. pneumoniae Y-4, penicillinase-producing; 10^6 cells per ml; read-out: MIC.
Source text: as §1, §2

The subject of assay [3] is E. coli TK-3*. As to conditions: Escherichia coli, 20 h.
Source text: as §1, §2

Assay [4] deals with St. aureus F-137*. To be noted: Staphylococcus aureus, 20 h.
Source text: as §1, §2

Assay [5] has as its system E. coli TK-111. As to conditions: Escherichia coli, TK111, 20 h, E. coli TK-111; 10^6 cells per ml; 37° C., 20 hours; read-out: MIC.
Source text: as §1

In assay [6] the test system is Pro. vulgaris GN3027. To be noted: Proteus vulgaris, GN3027, 20 h, Pro. vulgaris GN3027; 10^6 cells per ml; 37° C., 20 hours; read-out: MIC.
Source text: as §1

In assay [7] the test system is Aci. antitratus A-6. To be noted: 20 h, Aci. antitratus A-6; 10^6 cells per ml; 37° C., 20 hours; read-out: MIC.
Source text: as §1

The test system of assay [8] is St. aureus FDA209P. To be noted: Staphylococcus aureus, FDA209P, 20 h.
Source text: as §1

Assay [9] deals with Pro. morganii T-216. As to conditions: Morganella morganii, 37° C.
Source text: as §1

The test system of assay [10] is Ps. aeruginosa S-68. As to conditions: Pseudomonas aeruginosa, S68; Ps. aeruginosa S-68; 10^6 cells per ml; 37° C., 20 hours; read-out: MIC.
Source text: as §1

Assay [11] has as its system E. coli NIHJ JC-2. As to conditions: Escherichia coli, NIHJJC2, 20 h.
Source text: as §1

The test system of assay [12] is Pro. mirabilis T-111. As to conditions: Proteus mirabilis, 37° C.
Source text: as §1

The test system of assay [13] is Kl. pneumoniae Y-50. To be noted: Klebsiella pneumoniae, Y50, 20 h, 10^6 cells per ml, 37° C., read-out: MIC.
Source text: as §1

In assay [14] the test system is Ps. aeruginosa IFO3445. As to conditions: Pseudomonas aeruginosa; Ps. aeruginosa IFO3445; 10^6 cells per ml; 37° C., 20 hours; read-out: MIC.
Source text: as §1

The subject of assay [15] is Ent. cloacae IID977. To be noted: Enterobacter cloacae, IID977, 20 h.
Source text: as §1

Assay [16] concerns Kl. pneumoniae Y-41. As to conditions: Klebsiella pneumoniae, Y41, 10^6 cells per ml, 37° C., 20 hours, read-out: MIC.
Source text: as §1

The test system of assay [17] is Pro. vulgaris GN76**. To be noted: Proteus vulgaris.
Source text: as §1
(§3) ** Cephalospolinase-producing bacteria

Assay [18] relates to Ps. aeruginosa GN918**. As to conditions: Pseudomonas aeruginosa, Ps. aeruginosa GN918, cephalospolinase-producing, 10^6 cells per ml.
Source text: as §1, §3

The test system of assay [19] is E. coli GN5482**. To be noted: Escherichia coli, 20 h; E. coli GN5482, cephalospolinase-producing; 10^6 cells per ml; read-out: MIC.
Source text: as §1, §3

Setting [20] is: E. coli TK-3, penicillinase-producing, 10^6 cells per ml, read-out: MIC.
The mark [21] stands for this setting: T216, 10^6 cells per ml, 20 hours, read-out: MIC.
Where [22] appears, read: T111, 10^6 cells per ml, 20 hours, read-out: MIC.
The mark [23] stands for this setting: Ent. cloacae IID977, 10^6 cells per ml, 37° C., 20 hours, read-out: MIC.
Setting [24] is: 20 h, Pro. vulgaris GN76, cephalospolinase-producing, 10^6 cells per ml, read-out: MIC.
Where [25] appears, read: St. aureus F-137, penicillinase-producing, 10^6 cells per ml, read-out: MIC.
Setting [26] is: St. aureus FDA209P, 10^6 cells per ml, 37° C., 20 hours, read-out: MIC.
The mark [27] stands for this setting: E. coli NIHJ JC-2, 10^6 cells per ml, 37° C., 20 hours, read-out: MIC.

Values after ≈ are worked out from the molar mass of the structure shown. Where two headings read alike, the source gives them in different places.

`Cc1cc(O)ccc1-n1cc(C(=O)O)c(=O)cc1C1CC2C=CC1C2` (centres unmarked): the MIC (as a rule, the smallest concentration in the dilution series that meets the test's criterion for growth inhibition) in [1] was over 100 µg/mL; in [2], 25 µg/mL (≈ 74.1 µM); in assay [3] (setting [20]), 12.5 µg/mL (≈ 37.1 µM); in assay [4], 3.13 µg/mL (≈ 9.28 µM); in assay [5] it was 1.56 µg/mL (≈ 4.62 µM); in assay [6], 0.78 µg/mL (≈ 2.31 µM). Also, the MIC in [7] was 6.25 µg/mL (≈ 18.5 µM); in assay [8], 3.13 µg/mL (≈ 9.28 µM); in assay [9] (setting [21]), 12.5 µg/mL (≈ 37.1 µM); in assay [10] it was over 100 µg/mL; in [11] it was 3.13 µg/mL (≈ 9.28 µM); in [12] (setting [22]) it was 25 µg/mL (≈ 74.1 µM). Moreover, the MIC in assay [13] is 3.13 µg/mL (≈ 9.28 µM); in assay [14], over 100 µg/mL; in assay [15] (setting [23]), 12.5 µg/mL (≈ 37.1 µM); in assay [16], 25 µg/mL (≈ 74.1 µM); in assay [17] (setting [24]), 6.25 µg/mL (≈ 18.5 µM); in assay [18] (20 h, read-out: MIC) it was 50 µg/mL (≈ 148 µM). For the same compound, in [19], the minimal inhibitory concentration (MIC) was 1.56 µg/mL (≈ 4.62 µM).

With `Cc1cc(O)ccc1-n1cc(C(=O)O)c(=O)cc1C1CCCC1`, the MIC in [1] is 25 µg/mL (≈ 79.8 µM); in [2] it was 6.25 µg/mL (≈ 19.9 µM); in assay [3] (setting [20]), 1.56 µg/mL (≈ 4.98 µM); in [4] (setting [25]) it was 0.39 µg/mL (≈ 1.24 µM); in [5] it was 0.39 µg/mL (≈ 1.24 µM); in [6], at most 0.05 µg/mL. Besides, the MIC in assay [7] was determined as 0.78 µg/mL (≈ 2.49 µM); in assay [8] (setting [26]) it was 0.78 µg/mL (≈ 2.49 µM); in [9] (T216, 20 h, 10^6 cells per ml), 3.13 µg/mL (≈ 9.99 µM); in assay [10] it was 12.5 µg/mL (≈ 39.9 µM); in assay [11] (setting [27]), 0.78 µg/mL (≈ 2.49 µM); in [12] (T111, 20 h, 10^6 cells per ml), 3.13 µg/mL (≈ 9.99 µM). In addition, the MIC amounted to 0.78 µg/mL (≈ 2.49 µM) in assay [13]; 12.5 µg/mL (≈ 39.9 µM) in assay [14]; 1.56 µg/mL (≈ 4.98 µM) in assay [15] (setting [23]); 3.13 µg/mL (≈ 9.99 µM) in assay [16]; 0.78 µg/mL (≈ 2.49 µM) in assay [17] (setting [24]); 3.13 µg/mL (≈ 9.99 µM) in assay [18] (GN918, 20 h). In assay [19], the MIC is 0.2 µg/mL (≈ 0.638 µM).

As for `O=C(O)c1cn(-c2ccc(F)cc2)c(-c2ccc(N=Cc3ccc([N+](=O)[O-])o3)cc2)cc1=O`, the MIC in assay [1] came out at 50 µg/mL (≈ 112 µM); in [2], 25 µg/mL (≈ 55.9 µM); in [3] (setting [20]), 3.13 µg/mL (≈ 7 µM); in assay [4], 6.25 µg/mL (≈ 14 µM); in assay [5], 0.78 µg/mL (≈ 1.74 µM); in assay [6], 0.39 µg/mL (≈ 0.872 µM). In addition, the MIC in assay [7] stood at 3.13 µg/mL (≈ 7 µM); in assay [8] it was 6.25 µg/mL (≈ 14 µM); in [9] (setting [21]), 3.13 µg/mL (≈ 7 µM); in assay [10] it was 25 µg/mL (≈ 55.9 µM); in [11] it was 1.56 µg/mL (≈ 3.49 µM); in [12] (setting [22]), 12.5 µg/mL (≈ 27.9 µM). For the same compound, the MIC in assay [13] turned out to be 1.56 µg/mL (≈ 3.49 µM); in assay [14], 25 µg/mL (≈ 55.9 µM); in [15], 6.25 µg/mL (≈ 14 µM); in [16], 6.25 µg/mL (≈ 14 µM); in [17] (GN76, 20 h) it was 1.56 µg/mL (≈ 3.49 µM); in [18] (20 h, read-out: MIC), 25 µg/mL (≈ 55.9 µM). Also, the MIC in assay [19] was found to be 0.39 µg/mL (≈ 0.872 µM).

As to `O=C(O)c1cn(-c2ccc(F)cc2)c(C=Cc2ccncc2)cc1=O`, the MIC is 25 µg/mL (≈ 74.3 µM) in [1]; 6.25 µg/mL (≈ 18.6 µM) in [2]; 1.56 µg/mL (≈ 4.64 µM) in assay [3] (setting [20]); 12.5 µg/mL (≈ 37.2 µM) in assay [4] (setting [25]); 0.39 µg/mL (≈ 1.16 µM) in assay [5]; 0.2 µg/mL (≈ 0.595 µM) in assay [6]. Besides, the MIC in assay [7] came to 12.5 µg/mL (≈ 37.2 µM); in [8] (setting [26]) it was 12.5 µg/mL (≈ 37.2 µM); in assay [9] (T216, 20 h, 10^6 cells per ml), 6.25 µg/mL (≈ 18.6 µM); in [10], 12.5 µg/mL (≈ 37.2 µM); in [11] (setting [27]), 12.5 µg/mL (≈ 37.2 µM); in assay [12] (setting [22]), 12.5 µg/mL (≈ 37.2 µM). The MIC in assay [13] was found to be 0.78 µg/mL (≈ 2.32 µM); in assay [14], 50 µg/mL (≈ 149 µM); in assay [15] (setting [23]), 3.13 µg/mL (≈ 9.31 µM); in assay [16] it was 6.25 µg/mL (≈ 18.6 µM); in [17] (setting [24]) it was 0.78 µg/mL (≈ 2.32 µM); in assay [18] (20 h, read-out: MIC) it was 25 µg/mL (≈ 74.3 µM). In addition, the MIC in assay [19] turned out to be 0.2 µg/mL (≈ 0.595 µM).

On to `Nc1ccc(-c2cc(=O)c(C(=O)O)cn2-c2ccc(O)cc2)cc1`, for which the minimal inhibitory concentration (MIC) is 25 µg/mL (≈ 77.6 µM) in assay [1]; 12.5 µg/mL (≈ 38.8 µM) in assay [2]; 3.13 µg/mL (≈ 9.71 µM) in [3]; 6.25 µg/mL (≈ 19.4 µM) in [4] (setting [25]); 0.78 µg/mL (≈ 2.42 µM) in assay [5]; 0.39 µg/mL (≈ 1.21 µM) in assay [6]. Moreover, the MIC was determined as 25 µg/mL (≈ 77.6 µM) in assay [7]; 3.13 µg/mL (≈ 9.71 µM) in assay [8]; 3.13 µg/mL (≈ 9.71 µM) in [9] (T216, 20 h, 10^6 cells per ml); 25 µg/mL (≈ 77.6 µM) in assay [10]; 3.13 µg/mL (≈ 9.71 µM) in assay [11]; 25 µg/mL (≈ 77.6 µM) in [12] (setting [22]). Moreover, the MIC amounted to 3.13 µg/mL (≈ 9.71 µM) in assay [13]; 25 µg/mL (≈ 77.6 µM) in [14]; 12.5 µg/mL (≈ 38.8 µM) in assay [15]; 12.5 µg/mL (≈ 38.8 µM) in assay [16]; 1.56 µg/mL (≈ 4.84 µM) in assay [17] (setting [24]); 25 µg/mL (≈ 77.6 µM) in [18] (20 h, read-out: MIC). In addition, in [19], the minimal inhibitory concentration (MIC) came out at 0.1 µg/mL (≈ 0.31 µM).

The record behind these values is US4698352A, “4-oxo-1,4-dihydronicotinic acid derivatives, salts thereof, and antibacterial agents containing the same” (Toyama Chemical Co., Ltd., priority 1982, dated 1987).
